A short description of assay [1]: Serum lipid concentration in the five-year EPA-E trial. It counts as in vivo, human. The procedure: (§1) The observation was conducted by a large scale randomized unblinded controlled trial of the EPA-E group (9,326 cases) and the control group (9,319 cases). The patients were randomized into the groups at the beginning of the trial so that no significant difference is found between the groups in the background factors of the patients, namely, age, sex ratio, history and complication, type and proportion of the HMG-CoA RI, serum lipid concentration, and the like. The patients of both groups were under nutritional counseling, and HMG-CoA RI was administered to them as a base drug.
(§2) Epadel (Mochida Pharmaceutical Co., Ltd.) was orally administered as EPA-E typically at an adult dose of 600 mg after the meal three times a day. In the case of abnormal serum TG, however, the dose could be increased to 900 mg per administration and three times a day.
(§3) Pravastatin sodium (Mevalotin tablets and fine granules, Sankyo Co., Ltd.), simvastatin (Lipovas tablets, Banyu Pharmaceutical Co., Ltd.), or atorvastatin calcium hydrate (Lipitor tablets, Astellas Pharma Inc. and Pfizer) was used for the HMG-CoA RI, and these drugs were orally administered according to the predetermined dosage regimen.
For five years from before the start of the trial to the end of the trial, the concentration of the serum lipid (T-Cho, HDL-Cho, and TG) was periodically measured, and LDL-Cho was calculated by the equation of T-Cho-HDL-Cho-(TG/5). In addition, onset of cardiovascular events (cardiovascular death (fatal myocardial infarction and sudden cardiac death), nonfatal myocardial infarction, cardiovascular angioplasty, new onset of rest angina or effort angina, and destabilization of angina pectoris (hospitalization and cardiovascular angioplasty)) was observed.

For assay [2] the following is noted: oral 600 mg three times a day immediately after meals (up to 900 mg when serum TG is abnormal); cited from earlier work.
A short description of assay [3]: Five-year large scale randomized unblinded controlled trial of EPA-E: onset of cardiovascular events. It counts as in vivo, human. To be noted: five years; for incidence rate of the cardiovascular events / Cases with the cardiovascular events/all cases: EPA-E group. The procedure: as §1
The data was collected from […] participant patients by about 4,900 participant physicians in about 2,900 participant facilities with sufficient case number, randomization, and the strictness required for the controlled trial. For example, in choosing the participant patients, the serum T-Cho concentration was measured twice at an interval of two to four weeks except for the cases where the patients underwent an adequate nutritional consulting with high compliance and the cases where the fasting blood was collected after cessation of the antilipidemic drug, in which the measurement was conducted only once. While untreated patients were preferable, in the case of patients who had been taking an antilipidemic drug for more than six months at the start of the trial, four weeks of drug holidays (eight weeks in the case of probucol) were given. Patients who were administered with the antilipidemic drug for six months or less at the start of the trial were admitted in the trial with no drug holiday, and when the drug was HMG-CoA RI, its administration was continued while other drugs were changed to HMG-CoA RI.
In order to exclude cardiovascular events in the unstable period after the onset of myocardial infarction and cardiovascular events such as restenosis in the unstable period which is conceived to be caused by the angioplasty itself, the patients at or within six months after the acute myocardial infarction and patients at or within six months after the cardiovascular angioplasty were excluded from the trial subjects, and only patients who are beyond six months after such events and who are conceived to be in the stable period were included in the trial. In addition, patients who are inadequate for the examination of the action of preventing the onset of cardiovascular events for a long time which is the object of this trial, for example, patients of unstable angina pectoris, patients with history or complication of serious heart diseases (such as severe arrhythmia, heart failure, cardiomyopathy, valvular disease, and congenital heart disease), patients at or within six months from the onset of cerebrovascular disorder, and patients with complication of serious liver disease or kidney disease, as well as the patients whose participation was judged to be inappropriate by the attending physician were excluded from the trial.
as §2, §3
For five years from before the start of the trial to the end of the trial, the concentration of the serum lipid (T-Cho, HDL-Cho, and TG) was periodically measured, and LDL-Cho was calculated by the equation of T-Cho-HDL-Cho-(TG/5). […]

The conditions of assay [4]: oral, cited from earlier work.
The conditions of assay [5]: two-year administration after PTCA; cited from earlier work.
Where [6] appears, read: EPA-E group with HMG-CoA RI, five years.
[7] abbreviates: Cardiovascular angioplasty history: No.
[8] abbreviates: Cardiovascular angioplasty history: Yes.
Where [9] appears, read: Myocardial Infarction history: No.
Setting [10] is: Myocardial Infarction history: Yes.

For `CC/C=C\C/C=C\C/C=C\C/C=C\C/C=C\CCCC(=O)OCC` [EPA-E, ethyl icosapentate], the “serum HDL-Cho concentration” value in assay [1] (setting [6]) is reported as “no significant change”. Also, the “serum TG concentration” value in assay [1] (setting [6]) is recorded as “decreased”. For the same compound, the “serum LDL-Cho concentration” value in assay [1] (EPA-E group with HMG-CoA RI, five years, LDL-Cho calculated) is “decreased”. Further, the “serum T-Cho concentration” value in assay [1] (EPA-E group with HMG-CoA RI, observation period of five years) is given as “decreased”. For the same compound, in assay [1] (five years), the “decrease in the serum TG concentration, EPA-E group versus control group” value is “more significant”. Also, the “serum T-Cho concentration reduced” value in assay [2] is given as 3-6%. In addition, the “Odds ratio (incidence rate of the EPA-E group)/(incidence rate of the control group)” value in assay [3] (All Cases) is on record as 0.808. Moreover, the “Odds ratio (EPA-E group/control group)” value in assay [3] (setting [7]) came out at 0.862; in assay [3] (setting [8]), 0.671; in assay [3] (setting [9]), 0.811; in assay [3] (setting [10]) it was 0.744. Also, the “incidence rate of the cardiovascular events” value in assay [3] (setting [7]) is listed as “(2.10) %”; in assay [3] (setting [8]) it was “(14.45) %”; in assay [3] (setting [9]), “(2.05) %”; in assay [3] (setting [10]), “(14.96) %”. Further, the “Cases with the cardiovascular events/all cases” value is on record as 77/533 in assay [3] (setting [8]) and 82/548 in assay [3] (setting [10]). The “reduction of the incidence rate of the cardiovascular events compared to the control group” value in assay [3] (all cases) is listed as “about 19%”. Besides, the “decrease of the incidence rate of the cardiovascular events compared to the control group” value in assay [3] (patients with history of cardiovascular angioplasty) was “about 33%”; in assay [3] (patients with history of myocardial infarction), “about 26%”.
With `CC[C@H](C)C(=O)O[C@H]1C[C@H](O)C=C2C=C[C@H](C)[C@H](CC[C@@H](O)C[C@@H](O)CC(=O)O)[C@H]21` [pravastatin sodium], in assay [4] (average 4.9 years), the “serum HDL-Cho concentration increased” value is 5%; the “serum LDL-Cho concentration decreased” value is reported as 26%; the “serum TG decreased” value is on record as 12%; the “total incidence rate of nonfatal myocardial infarction and cardiovascular death decreased” value is given as 31%. Also, the “serum T-Cho concentration decreased” value in assay [4] (average period of 4.9 years, male hyperlipidemia patients with no history of myocardial infarction) is listed as 20%. In addition, the restenosis rate entry in assay [5] is on record as “reduced the restenosis rate”.

Source of the values: patent US9198892B2, “Composition and/or method for preventing onset and/or recurrence of cardiovascular events” (MOCHIDA PHARMACEUTICAL CO., LTD., priority 2005, dated 2015).
